Reference: US20240277873A1, “ULTRABRIGHT […] PROBES FOR DETECTION AND IMAGING” (Nanyang Technological University, priority 2021, published 2024)

Tests used:
[1] = system: neutrophils; experiment: Cytotoxicity assay (MTS), neutrophils; format: cell-based; conditions: 2.5 to 50 μM, 24 h
Procedure: (§1) Neutrophils and normal mouse embryonic fibroblasts (3T3) cells were seeded in 96-well plates which have 5×10^4 cells per well and incubated for 24 h. Then, BTPDNe at different concentrations (2.5, 5, 10, 20 and 50 μM) was added into the neutrophils and 3T3 cells, respectively. After 24 h incubation, MTS assay was added to the cell for 4 h incubation. After incubation, the absorbance of MTS at 490 nm was recorded by using a microplate reader (SpectraMax M, Switzerland). The assays were performed in five sets for each concentration.

[2] = system: neutrophils; experiment: In vitro cell chemiluminescent imaging; format: cell-based
Procedure: 3T3 cells and immune cells (neutrophils, DC cells, T-cells and macrophage) (10^4 cells) were seeded into confocal cell culture dishes (dia. 15 mm) and incubated for 24 h. […] After incubation, the medium was removed, and the cells were washed thrice. Chemiluminescence imaging of the cells were recorded on LX71 inverted microscope (Olympus), which was equipped with infinity 3-1 (Lumenera) CCD camera. During imaging, the excitation light was blocked and the images were recorded under an open filter, with an acquisition time of 60 s.

[3] = biological target: T1, NE (Homo sapiens, UniProt P08246); experiment: Chemiluminescence and fluorescence changes of BTPDNe and MPDNe in the presence of NE (response, selectivity, LOD, half-life); format: biochemical
T1 sequence (P08246 30-267): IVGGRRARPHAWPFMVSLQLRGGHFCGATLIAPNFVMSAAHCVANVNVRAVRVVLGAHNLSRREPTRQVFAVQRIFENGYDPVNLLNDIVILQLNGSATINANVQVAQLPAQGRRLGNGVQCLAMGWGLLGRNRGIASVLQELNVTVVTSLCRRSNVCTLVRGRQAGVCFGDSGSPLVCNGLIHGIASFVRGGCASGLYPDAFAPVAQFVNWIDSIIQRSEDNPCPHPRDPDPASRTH
Procedure: Chemiluminescence and fluorescence changes of BTPDNe (20 μM) were determined in the presence of NE (0.1 U/ml), other different enzymes (˜0.1 U/mL, APN, ALP, Cas-3, cat B, GGT, β-gal and NTR) in 50 mM Tris, 1 M NaCl, 0.05% (w/v) Brij-35, pH 7.5 at 37° C. after 30 min incubation.
Chemiluminescence and fluorescence changes of BTPDNe and MPDNe (20 μM) in the presence of NE (0.1 U/mL), or other different enzymes (˜0.1 U/mL, APN, ALP, Cas-3, Cat B, GGT, β-gal, NTR, CatG and PR3) were tested after 30 min incubation in 50 mM Tris, 1 M NaCl, 0.05% (w/v) Brij-35, pH 7.5 at 37° C.
To determine the LOD for NE enzyme detection, the chemiluminescence of BTPDNe was recorded in 50 mM Tris, 1 M NaCl, 0.05% (w/v) Brij-35, pH 7.5 at 37° C. with different concentrations of NE (0, 0.05, 0.1, 0.5, 1, and 2 U/ml) for 30 min incubation. Then, initial reaction velocity was calculated.

[4] = system: LPS-treated mice; experiment: Real-time chemiluminescence imaging in LPS-induced peritonitis model; format: in vivo
Procedure: The model was induced by intraperitoneal injection of LPS (15 ng) in 100 μL of PBS or PBS only as a control. Probe BTPDNe (40 μM·Kg^−1) or MPDNe (40 μM·Kg^−1) in PBS (10 mM, pH 7.4) containing 10% DMSO was intraperitoneally injected in mice. Then, chemiluminescent signals at different post-injection timepoints (0, 5, 10, 20, 45 and 60 min) were recorded using IVIS system bioluminescence with acquiring time of 120 s. After 3 h, the peritoneum was flushed with PBS (5 mL)+EDTA (5 mM). After erythrocyte lysis, neutrophils from C57Bl/6 mice were stained with a PE-labeled CD. After treatment with LPS for 3 h, CD11c antibody and an APC-labeled Ly6G antibody were added to the neutrophils, and the neutrophils were analyzed for double-positive events using flow cytometry (BD Biosciences). Data analysis was performed using Flowjo V10. Neutrophils were gated as CD45+CD11b+Ly6G+cells after the exclusion of doublets.
Fluorescence and chemiluminescence in vivo imaging of the probes were measured by an IVIS spectrum imaging system. Chemiluminescence imaging of the cells was recorded on LX71 inverted microscope. Tissue slices were cut by Leica, Germany slicer and imaged by a Nikon ECLIPSE 80i microscope. The images of tissue sections and cells were recorded with a LSM800 confocal laser scanning microscope. The white light was provided by 150 W LED High Bay Thermo Light.

[5] = system: 3T3 cells; experiment: Cytotoxicity assay (MTS), 3T3 cells; format: cell-based, mouse; conditions: 2.5 to 50 μM, 24 h
Procedure: as §1

[6] = Blood test: chemiluminescence after incubation in healthy mouse blood; conditions: 20 μM, 30 min, 100 μL blood
Procedure: BTPDNe (20 μM) and MPDNe (20 μM) were incubated for 30 min in healthy mouse blood (100 μL), respectively. Chemiluminescence intensities were measured by IVIS system bioluminescence with an acquisition time of 60 s.

[7] = system: IMQ-induced psoriasis; experiment: Real-time chemiluminescence imaging in IMQ-induced psoriasis model; format: in vivo, BALB/c mice; conditions: 3 min post-topical administration of BTPDNe, microneedle
Procedure: The control group was treated with Vaseline (50 mg/d) and the IMQ-treatment group was applied with IMQ cream (60 mg/d, 5%) once a day. […] Probe BTPDNe (10 uM, 1 mM in DMSO) was thoroughly mixed with Aquaphor (˜10 mg) and applied for psoriasis imaging, followed by poly(methyl methacrylate) microneedle treatment for 1 min. Then, chemiluminescent signals at different time-points (0, 3, 5, 10, 15, 30, 45 and 60 min) after probe-treatment were recorded using IVIS system bioluminescence with acquiring time of 180 s. Until the third day, all the mice were sacrificed to collect tissue and blood for further experiments (hematoxylin and eosin (H&E) staining and flow cytometry analysis) as described in Example 11.

For `COC1(c2ccc(-c3nc4ccccc4s3)c(OCc3ccc(NC(=O)[C@@H](NC(=O)[C@@H]4CCCN4C(=O)[C@H](C)NC(=O)[C@H](C)NC(C)=O)C(C)C)cc3)c2)OOC12C1CC3CC(C1)CC2C3` (stereo partly drawn) [BTPDNe], the “cytotoxicity (cell viability, MTS)” value [1] was “no cytotoxicity”, the “differentiation of neutrophils from other immune cells” value ([2]; neutrophil, DC, macrophage, CTL, 3T3, 20 μM) was “differentiated neutrophils from other immune cells” and the “activated chemiluminescence signal in neutrophils, 30 min” value ([2]; probe 10 μM, incubation 30 min) was 63.0 pixels. For the same compound, the “activated chemiluminescence signal in neutrophils, 1 h” value ([2]; probe 10 μM, incubation 1 h) was 42.7 pixels, the “selectivity towards NE over other enzymes” value ([3]; APN, ALP, Cas-3, cat B, GGT, furin, β-gal, NTR, PR3, CatG (~0.1 U/mL)) was “high selectivity” and the “fluorescence increase after incubation with NE” value ([3]; at 515 nm, probe 20 μM, NE 0.1 U/mL, 30 min) was 20.1 fold. The “chemiluminescence enhancement after incubation with NE” value ([3]; probe 20 μM, NE 0.1 U/mL, 50 mM Tris, 1 M NaCl, 0.05% Brij-35, pH 7.5, 37° C., 30 min, BTPDNe at 515 nm, MPDNe at 550 nm) was ~42.3 fold, the “chemiluminescent signal relative to MPDNe-injected mice” value ([4]; 20 min post-treatment of probes) was ~2.15 fold and the “chemiluminescent signals after 60 min” value ([4]; LPS-treated mice, 60 min post injection) was “could still be observed”. For the same compound, the “maximum chemiluminescent signal enhancement in peritoneum relative to negative control group” value ([4]; LPS-treated mice, 3 h post LPS, i.p. probe 40 μM·kg^−1) was ~9.2 fold, the “cytotoxicity (cell viability, MTS)” value [5] was “no cytotoxicity” and the “chemiluminescence intensities after incubation with healthy mouse blood” value [6] was “Negligible”. For the same compound, the “chemiluminescent signal from dorsal skins vs control group, day 1” value ([7]; day 1 post IMQ) was 3.1 fold, the “chemiluminescent signal from dorsal skins vs control group, day 2” value ([7]; day 2 post IMQ) was 3.7 fold and the “chemiluminescent signal from dorsal skins vs control group, day 3” value ([7]; day 3 post IMQ) was 2.9 fold.
